# Test results reported in patent US12239655B2, “Combined modalities for nucleosides and/or NADPH oxidase (NOX) inhibitors as myeloid-specific antiviral agents” (Emory University, priority 2017, dated 2025).
# Key:
# [1] = Cellular toxicity assay in macrophages; type: cell-based, human; settings: human
# [2] = Cellular toxicity assay in PBM cells; type: cell-based; settings: human
# Protocol: (§1) The toxicity of the compounds was assessed in Vero, human PBM, CEM (human lymphoblastoid), MT-2, and HepG2 cells, as described previously (see Schinazi R. F., Sommadossi J.-P., Saalmann V., Cannon D. L., Xie M.-Y., Hart G. C., Smith G. A. & Hahn E. F. Antimicrob. Agents Chemother. 1990, 34, 1061-67). Cycloheximide was included as positive cytotoxic control, and untreated cells exposed to solvent were included as negative controls. The cytotoxicity IC50 was obtained from the concentration-response curve using the median effective method described previously (see Chou T.-C. & Talalay P. Adv. Enzyme Regul. 1984, 22, 27-55; Belen'kii M. S. & Schinazi R. F. Antiviral Res. 1994, 25, 1-11).
# [3] = test system: HIV; assay: HIV assay in PBM cells; type: cell-based
# Protocol: (§2) PBM cells or macrophages were incubated with various concentrations of antiviral agents for 6 days PBM cells) or […] (macrophages), followed by harvest of supernatants and quantification of extracellular HIV using the RT assay or p24 assays as previously described (Gavegnano and Schinazi et al, 2012, AAC). AZT (positive control), no drug controls, or virus alone were also performed in each assay. Assays were performed in 8 independent experiments. The Chou and Tallalay method was used to calculate the effective inhibitory concentration 50/90 as previously described (Gavegnano and Schinazi et al, 2012, AAC).
# [4] = test system: HIV; assay: HIV assay in macrophages; type: cell-based; settings: for EC50 / EC90: Human immunodeficiency virus 1, Macrophage, Table 5 (Example 8); for Antiviral Potency Macrophages - EC50/90: EC50 / Antiviral Potency Macrophages - EC50/90: EC90: Table 5A
# Protocol: as §2
# [5] = Cellular toxicity assay in Huh7 cells; type: cell-based; settings: human
# [6] = Cellular toxicity assay in Vero cells; type: cell-based; settings: African green monkey
# Protocol: as §1
# [7] = Cellular toxicity assay in CEM cells; type: cell-based; settings: human
# Protocol: as §1
# [8] = Bone marrow cytotoxicity, GM lineage (CFU-GM); type: cell-based, human; settings: human, Table 8A, first value of the cell, read-out: Cytotoxicity: MTT IC50, Bone Marrow (GM Lineage)
# Protocol: (§3) Primary human bone marrow mononuclear cells can be obtained commercially from Cambrex Bioscience (Walkersville, MD). CFU-GM assays is carried out using a bilayer soft agar in the presence of 50 units/mL human recombinant granulocyte/macrophage colony-stimulating factor, while BFU-E assays used a […] matrix containing 1 unit/mL erythropoietin (see Sommadossi J P, Carlisle R. Toxicity of 3′-azido-3′-deoxythymidine and 9-(1,3-dihydroxy-2-propoxymethyl) guanine for normal human hepatopoietic progenitor cells in vitro. Antimicrob. Agents Chemother. 1987; 31: 452-454; Sommadossi, JP, Schinazi, RF, Chu, C K, and Xie, M Y. Comparison of cytotoxicity of the (−) and (+) enantiomer of 2′,3′-dideoxy-3′-thiacytidine in normal human bone marrow progenitor cells. Biochem. Pharmacol. 1992; 44:1921-1925). Each experiment can be performed in duplicate in cells from three different donors. AZT is used as a positive control. […] The 50% inhibitory concentration (IC50) can be obtained by least-squares linear regression analysis of the logarithm of drug concentration versus BFU-E survival fractions. Statistical analysis can be performed with Student's t test for independent non-paired samples.
# [9] = Bone marrow cytotoxicity, erythroid lineage (BFU-E); type: cell-based, human; settings: human; Table 8A; first value of the cell; read-out: Cytotoxicity: MTT IC50, Bone Marrow (Erythroid Lineage)
# Protocol: as §3
# [10] = test system: Bone Marrow (GM Lineage); assay: Bone marrow cytotoxicity, GM lineage (CFU-GM); type: cell-based, human; settings: Table 8A; slash not defined, head says IC50
# Protocol: as §3
# [11] = test system: Bone Marrow (Erythroid Lineage); assay: Bone marrow cytotoxicity, erythroid lineage (BFU-E); type: cell-based, human; settings: Table 8A; slash not defined, head says IC50
# Protocol: as §3
# [12] = test system: Macrophages; assay: Cellular toxicity assay in macrophages; type: cell-based, human; settings: Table 8A; slash not defined, head says IC50
# [13] = macrophages, Table 8, read-out: Cytotoxicity IC50, Macrophages
# [14] = PBM cells, Table 8, read-out: Cytotoxicity IC50, PBM
# [15] = Human immunodeficiency virus 1, PBMC, 144 h, Table 5 (Example 8), HIV in PBM cells, 6 days, read-out: PBM Cells EC50
# [16] = Table 8A, first value of the cell, read-out: Cytotoxicity: MTT IC50, Macrophages
# [17] = Table 8A, MTT, read-out: Cytotoxicity: MTT IC50, Huh7
# [18] = Table 8A, MTT, read-out: Cytotoxicity: MTT IC50, PBM
# [19] = Table 8A, MTT, read-out: Cytotoxicity: MTT IC50, Vero
# [20] = Table 8A, MTT, read-out: Cytotoxicity: MTT IC50, CEM
# [21] = Human immunodeficiency virus 1, PBMC, Table 5A, HIV in PBM cells, read-out: Antiviral Potency PBM Cells - EC50/90: EC50
# [22] = macrophages, Table 8A, first value of the cell, read-out: Cytotoxicity: MTT IC50, Macrophages
# [23] = Huh7 cells, Table 8A, MTT, read-out: Cytotoxicity: MTT IC50, Huh7
# [24] = primary bone marrow mononuclear cells, GM lineage (CFU-GM)
# [25] = PBM cells, Table 8A, MTT, read-out: Cytotoxicity: MTT IC50, PBM
# [26] = Vero cells, Table 8A, MTT, read-out: Cytotoxicity: MTT IC50, Vero
# [27] = CEM lymphoblastoid cells, Table 8A, MTT, read-out: Cytotoxicity: MTT IC50, CEM
# [28] = Table 5A, HIV in PBM cells, read-out: Antiviral Potency PBM Cells - EC50/90: EC50
# [29] = Vero cells, Table 8, read-out: Cytotoxicity IC50, Vero
# [30] = CEM lymphoblastoid cells, Table 8, read-out: Cytotoxicity IC50, CEM
smiles,measurement,setting,value
CN(C)c1cccc(-c2c3c(=O)n(-c4ccccc4Cl)[nH]c3cc(=O)n2C)c1 [drawing 62],IC50,[1]; [13],> 10 µM
same,IC50,[2]; [14],> 100 µM
C#C[C@]1(CO)O[C@@H](n2cnc3c(N)nc(F)nc32)C(O)C1O (some centres unmarked),EC90,"[3]; Human immunodeficiency virus 1, PBMC, 144 h, Table 5 (Example 8), HIV in PBM cells, 6 days",19.1 µM
same,EC50,[3]; [15],3.2 µM
same,EC50,[4],0.001 µM
same,EC90,[4],20 nM
CC(=O)c1ccc2c(c1)Nc1ccccc1S2 [drawing 74],EC50,[3]; [15],> 100 µM
same,EC50,[4],0.02 µM
same,EC90,[4],200 nM
CC(=O)c1ccc2c(c1)Nc1ccccc1S2 [drawing 63],IC50,[1]; [13],> 10 µM
same,IC50,[2]; [14],> 100 µM
C[C@@H]1C[C@@H]([C@H](O)CC2CC(=O)NC(=O)C2)C(=O)[C@@H](C)C1,IC50,[1]; [16],6.9 ± 0.9 µM
same,IC50,[5]; [17],0.9 µM
same,IC50,[2]; [18],2.5 µM
same,IC50,[6]; [19],0.7 µM
same,IC50,[7]; [20],0.06 µM
O=c1c2cc(F)ccc2sn1-c1ccc2c(c1)OCO2 [drawing 70],IC50,"[5]; Huh7 cells, Table 8B, MTT/MTS (head line), read-out: Cytotoxicity: IC50, Huh7",379 ± 19.2 µM
same,IC50,"[2]; PBM cells, Table 8B, MTS (head line), read-out: Cytotoxicity: IC50, PBM",58.3 ± 10.9 µM
same,IC50,"[6]; Vero cells, Table 8B, MTT (head line), read-out: Cytotoxicity: IC50, Vero",20.1 µM
same,IC50,"[7]; CEM lymphoblastoid cells, Table 8B, MTT (head line), read-out: Cytotoxicity: IC50, CEM",3.7 µM
C#C[C@]1(CO)O[C@@H](n2ccc(=O)[nH]c2=O)[C@H](O)[C@@H]1O [drawing 76],EC50,[3]; [21],> 10 µM
same,Antiviral Potency Macrophages - EC50/90: EC50,[4],16600 ± 3200 nM
same,Antiviral Potency Macrophages - EC50/90: EC90,[4],> 100000 nM
C#C[C@]1(CO)O[C@@H](n2ccc(=O)[nH]c2=O)[C@H](O)[C@@H]1O [drawing 65],IC50,[1]; [22],> 100 µM
same,IC50,[5]; [23],> 100 µM
same,IC50,[8]; [24],> 100 µM
same,IC50,[2]; [25],> 100 µM
same,IC50,[9],> 100 µM
same,IC50,[6]; [26],> 100 µM
same,IC50,[7]; [27],> 100 µM
O=c1c2cc(F)ccc2sn1-c1ccc2c(c1)OCO2 [drawing 81],Antiviral Potency PBM Cells - EC50/90: EC90,"[3]; Table 5A, HIV in PBM cells",12.9 µM
same,EC50,[3]; [28],0.7 µM
same,Antiviral Potency Macrophages - EC50/90: EC50,[4],9 nM
same,Antiviral Potency Macrophages - EC50/90: EC90,[4],300 nM
C#C[C@]1(CO)O[C@@H](n2cnc3c(N)nc(F)nc32)CC1O (some centres unmarked),EC90,[4],0.01 nM
C#C[C@]1(COP(=O)(N[C@@H](C)C(=O)OC(C)C)Oc2ccccc2)O[C@@H](n2ccc(=O)[nH]c2=O)[C@H](O)[C@@H]1O (some centres unmarked) [drawing 66],IC50,[1]; [16],> 100 µM
same,IC50,[5]; [17],> 100 µM
same,IC50,[8],> 100 µM
same,IC50,[2]; [18],> 100 µM
same,IC50,[9],> 100 µM
same,IC50,[6]; [19],> 100 µM
same,IC50,[7]; [20],> 100 µM
C#C[C@]1(CO)O[C@@H](n2cnc3c(N)nc(F)nc32)[C@H](O)[C@@H]1O [drawing 79],EC50,[3]; [21],1.8 µM
same,Antiviral Potency Macrophages - EC50/90: EC50,[4],1 ± 2 nM
same,Antiviral Potency Macrophages - EC50/90: EC90,[4],20 ± 10 nM
COc1ccc(NC(=O)Nc2ccc(N)cc2)cc1 [drawing 64],IC50,[1]; [13],> 10 µM
same,IC50,[2]; [14],> 100 µM
C#C[C@]1(CO)O[C@@H](n2cnc3c(N)nc(F)nc32)C[C@@H]1O [drawing 60],IC50,[1]; [13],2.4 µM
same,IC50,[2]; [14],1.1 µM
same,IC50,[6]; [29],≥ 100 µM
same,IC50,[7]; [30],6.8 µM
C#C[C@]1(CO)O[C@@H](n2cnc3c(N)nc(F)nc32)[C@H](O)[C@@H]1O [drawing 68],IC50,[1]; [22],3.2 ± 0.3 µM
same,IC50,[5]; [23],11.4 µM
same,"Bone Marrow (GM Lineage), second value after the slash",[10],12.7 µM
same,IC50,[8]; [24],0.4 µM
same,IC50,[2]; [25],2.2 µM
same,IC50,[9],0.7 µM
same,"Bone Marrow (Erythroid Lineage), second value after the slash",[11],5.4 µM
same,IC50,[6]; [26],12.9 µM
same,IC50,[7]; [27],1.9 µM
C#C[C@]1(CO)O[C@@H](n2cnc3c(N)nc(F)nc32)[C@H](O)[C@@H]1O [drawing 61],IC50,[1]; [13],0.7 µM
same,IC50,[2]; [14],3.2 µM
same,IC50,[6]; [29],> 100 µM
same,IC50,[7]; [30],52 µM
C#C[C@]1(COP(=O)(N[C@@H](C)C(=O)OC(C)C)Oc2ccccc2)O[C@@H](n2ccc(=O)[nH]c2=O)[C@H](O)[C@@H]1O (some centres unmarked) [drawing 77],EC50,"[3]; Human immunodeficiency virus 1, PBMC, read-out: Antiviral Potency PBM Cells - EC50/90: EC50",> 10 µM
same,Antiviral Potency Macrophages - EC50/90: EC50,[4],0.1 ± 6 nM
same,Antiviral Potency Macrophages - EC50/90: EC90,[4],9 ± 7 nM
COc1ccc(NC(=O)Nc2ccc(N)cc2)cc1 [drawing 75],EC50,[3]; [15],> 100 µM
same,EC50,[4],0.001 µM
same,EC90,[4],100 nM
CN(C)c1cccc(-c2c3c(=O)n(-c4ccccc4Cl)[nH]c3cc(=O)n2C)c1 [drawing 73],EC50,[3]; [15],> 100 µM
same,EC50,[4],0.03 µM
same,EC90,[4],300 nM
C#C[C@]1(CO)O[C@@H](n2cnc3c(N)nc(F)nc32)C[C@@H]1O [drawing 78],Antiviral Potency PBM Cells - EC50/90: EC90,"[3]; Table 5A, HIV in PBM cells",0.0000001 µM
same,EC50,[3]; [28],0.000000001 µM
same,Antiviral Potency Macrophages - EC50/90: EC50,[4],3e-05 nM
same,Antiviral Potency Macrophages - EC50/90: EC90,[4],7e-06 nM
C#C[C@]1(CO)O[C@@H](n2cnc3c(N)nc(F)nc32)C[C@@H]1O [drawing 67],"Macrophages, second value after the slash",[12],9.2 µM
same,IC50,[1]; [22],21 µM
same,"Bone Marrow (GM Lineage), second value after the slash",[10],22.4 µM
same,IC50,[8]; [24],1.9 µM
same,IC50,[2]; [25],2.9 µM
same,IC50,[9],2.4 µM
same,"Bone Marrow (Erythroid Lineage), second value after the slash",[11],8.6 µM
same,IC50,[6]; [26],3.2 µM
same,IC50,[7]; [27],1.7 µM
